Laboratory results taken from patent US9408391B2, “Fungicide composition comprising a tetrazolyloxime derivative and a thiazolylpiperidine derivative” (BAYER INTELLECTUAL PROPERTY GMBH, priority 2010, dated 2016).
Read-outs that look alike come from different tables or passages of the source.

Columns and labels:
Venturia inaequalis = assay: Venturia test (apples)/preventive; conditions: apple plants, preventive spray, 100 ppm a.i., evaluated 10 days after inoculation
Procedure: Venturia Test (Apples)/Preventive
Solvent: 24,5 parts by weight of acetone • 24,5 parts by weight of dimethylacetamide
Emulsifier: part by weight of alkylaryl polyglycol ether
After the spray coating has dried on the plants are inoculated with an aqueous conidia suspension of the causal agent of apple scab (Venturia inaequalis) and then remain for 1 day in an incubation cabinet at approximately 20° C. and a relative atmospheric humidity of 100%.
The plants are then placed in a greenhouse at approximately 21° C. and a relative atmospheric humidity of approximately 90%.
The test is evaluated 10 days after the inoculation.

Phytophthora infestans = assay type: in vivo; conditions: tomato plants, preventive spray, evaluated 3 days after inoculation

## Cn1nnnc1/C(=N\OCc1cccc(NC(=O)OC(C)(C)C)n1)c1ccccc1 [(A2)]
Venturia inaequalis
  Efficacy in % found: 22%
Phytophthora infestans; 1 ppm a.i.
  Efficacy in % found: 46%

## Cc1cc(C(F)(F)F)nn1CC(=O)N1CCC(c2nc(C3=NOC(c4c(F)cccc4F)C3)cs2)CC1 (stereo not shown) [(B2), 1-(4-{4-[5-(2,6-difluorophenyl)-4,5-dihydro-1,2-oxazol-3-yl]-1,3-thiazol-2-yl}piperidin-1-yl)-2-[5-methyl-3-(trifluoromethyl)-1H-pyrazol-1-yl]ethanone]
Venturia inaequalis
  Efficacy in % found: 0%
Phytophthora infestans; 0.01 ppm a.i.
  Efficacy in % found: 30%
